Assay results from the supplement of paper PMC10307832.

compound: CC(C)(C)c1cc(NC(=O)Nc2ccc(-c3cn4c(n3)sc3cc(OCCN5CCOCC5)ccc34)cc2)no1 [Quizartinib] + Nc1nc2[nH]cc(CCc3ccc(C(=O)N[C@@H](CCC(=O)O)C(=O)O)cc3)c2c(=O)[nH]1 [Pemetrexed] (partner 0.2 µM); assay: relative viability (nuclei count vs DMSO), 5 days (fraction); higher = more cells survive; details: first compound 0.1 µM
Procedure, shortened: (§1)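 Nuclei were stained with Hoechst during a one-step fixation (final 0.05% Triton X-100, 1% formaldehyde, 1 ug/ml Hoechst) carried out 5 days after dosing, then counted on 4× images. The cells, lung cancer lines in 1536-well plates, had been dosed by pin tool the day after seeding with one drug alone or a fixed anchor-drug dose plus five library-drug doses (not always all listed) in √10 steps. Relative viability is the nuclei count in treated wells divided by that in vehicle wells, and each value is the median of duplicate plates.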

Cell Line | relative viability
H3255 | 0.586
NCI-H1792 | 0.713
NCI-H647 | 0.19
LCLC-97TM1 | 0.191
LXF-289 | 0.867
LU99A | 0.183
NCI-H2023 | 0.244
NCI-H2228 | 0.317
NCI-H1437 | 0.32
NCI-H1395 | 1
NCI-H2009 | 1.07
HCC-366 | 0.178
NCI-H1915 | 0.488
NCI-H2347 | 0.456
LCLC-103H | 0.493
NCI-H1734 | 0.412
NCI-H1944 | 0.583
NCI-H2170 | 0.277
SW 900 | 0.483
NCI-H358 | 0.155
LK-2 | 0.336
NCI-H2342 | 0.778
NCI-H1793 | 0.929
HCC-44 | 0.606
NCI-H522 | 1.01

compound: COCC[n+]1c2c(n(Cc3cnccn3)c1C)C(=O)c1ccccc1C2=O [YM155] + CC(C)C[C@H](NC(=O)[C@H](Cc1ccccc1)NC(=O)c1cnccn1)B(O)O [Bortezomib] (partner 0.002 µM); assay: as above; details: first compound 0.002 µM
Procedure, shortened: as §1

Cell Line | relative viability
EKVX | 0.955
EPLC-272H | 0.846
NCI-H520 | 0.586
NCI-H1563 | 0.974
NCI-H650 | 1.02
RERF-LC-KJ | 1.11
HCC-827 | 1.01
NCI-H2087 | 0.872
NCI-H1299 | 1.02
NCI-H1651 | 0.937
UMC-11 | 0.692
NCI-H1355 | 1.11
H3255 | 0.711
NCI-H1792 | 0.816
NCI-H647 | 0.777
Calu-6 | 0.966
LCLC-97TM1 | 0.313

Cell Line | relative viability
NCI-H1703 | 0.283
LXF-289 | 0.944
LU99A | 1.17
NCI-H2023 | 0.984
NCI-H2228 | 0.975
NCI-H1437 | 0.501
NCI-H2009 | 0.944
HCC-366 | 1.1
EBC-1 | 0.613
NCI-H1915 | 0.945
NCI-H2347 | 0.984
LCLC-103H | 1.01
ABC-1 | 0.271
NCI-H1734 | 1
IA-LM | 0.806
NCI-H727 | 0.88
HCC-44 | 0.871

same assay, conditions: first compound 0.006325 µM

Cell Line | relative viability
EKVX | 0.934
EPLC-272H | 1.04
NCI-H520 | 0.62
NCI-H1563 | 0.926
NCI-H650 | 0.771
RERF-LC-KJ | 1.18
HCC-827 | 1.04
NCI-H2087 | 0.76
NCI-H1299 | 1.01
NCI-H1651 | 0.946
UMC-11 | 0.557
NCI-H1355 | 1.27
H3255 | 0.719
NCI-H1792 | 0.97
NCI-H647 | 1
Calu-6 | 0.84
LCLC-97TM1 | 0.74

Cell Line | relative viability
NCI-H1703 | 0.323
LXF-289 | 0.93
LU99A | 1.11
NCI-H2023 | 1.01
NCI-H2228 | 0.923
NCI-H1437 | 0.501
NCI-H2009 | 1.02
HCC-366 | 1.1
EBC-1 | 0.458
NCI-H1915 | 0.972
NCI-H2347 | 1.05
LCLC-103H | 1.06
ABC-1 | 0.4
NCI-H1734 | 0.818
IA-LM | 0.78
NCI-H727 | 0.771
HCC-44 | 0.908

same assay, conditions: first compound 0.02 µM

Cell Line | relative viability
EKVX | 1.08
EPLC-272H | 0.875
NCI-H520 | 0.653
NCI-H1563 | 0.907
NCI-H650 | 1.08
RERF-LC-KJ | 1.09
HCC-827 | 1.02
NCI-H2087 | 0.867
NCI-H1299 | 1
NCI-H1651 | 0.897
UMC-11 | 0.719
NCI-H1355 | 1.25
H3255 | 0.858
NCI-H1792 | 0.943
NCI-H647 | 0.826
Calu-6 | 0.298
LCLC-97TM1 | 0.621

Cell Line | relative viability
NCI-H1703 | 0.322
LXF-289 | 0.989
LU99A | 1.16
NCI-H2023 | 1.17
NCI-H2228 | 1.11
NCI-H1437 | 0.516
NCI-H2009 | 1.04
HCC-366 | 0.917
EBC-1 | 0.566
NCI-H1915 | 0.957
NCI-H2347 | 1.24
LCLC-103H | 1.17
ABC-1 | 0.241
NCI-H1734 | 1.04
IA-LM | 0.874
NCI-H727 | 0.924
HCC-44 | 0.968

same assay, conditions: first compound 0.06325 µM

Cell Line | relative viability
EKVX | 0.984
EPLC-272H | 0.862
NCI-H520 | 1
NCI-H1563 | 0.989
NCI-H650 | 0.871
RERF-LC-KJ | 1.25
HCC-827 | 0.912
NCI-H2087 | 0.783
NCI-H1299 | 1
NCI-H1651 | 0.961
UMC-11 | 0.667
NCI-H1355 | 1.22
H3255 | 0.693
NCI-H1792 | 1
NCI-H647 | 0.792
Calu-6 | 0.188
LCLC-97TM1 | 0.185
NCI-H1703 | 0.198
LXF-289 | 1.02
LU99A | 0.965
NCI-H2023 | 0.893
NCI-H2228 | 1.1
NCI-H1437 | 0.519
NCI-H2009 | 0.923
HCC-366 | 1.02
EBC-1 | 0.593
NCI-H1915 | 0.918
NCI-H2347 | 0.819
